Earlier results on 59 compounds are cited in the CATMoS acute toxicity set (Mansouri et al. 2021).

Values joined by “and” are separate entries in the source; they are usually repeats but may differ in a detail not shown here. Identical values can stand only once.

For orientation: LD50 means the dose expected to kill half of the subjects tested.

The nature of the data set: rat acute oral toxicity. The following applies: in vivo.
`CC(=O)C(/N=N/c1ccc(-c2ccc(/N=N/C(C(C)=O)C(=O)Nc3ccccc3)c(Cl)c2)cc1Cl)C(=O)Nc1ccccc1` (centres undefined): the 50% lethal dose (LD50) is 2230 mg/kg.

With `c1cncc(C2CCCCN2)c1` (centres undefined), the 50% lethal dose (LD50) was 210 mg/kg and 235 mg/kg.

On to `CC(OCCCl)OCCCl`, for which the LD50 was 310 mg/kg.

For the compound `C=C(OP(=O)(OC)OC)P(=O)(OC)OC`, the 50% lethal dose (LD50) is 287 mg/kg.

On to `COc1ccc2c(c1)Sc1ccccc1N2C1CCCN(C)C1` (centres undefined), for which the LD50 was 750 mg/kg.

Regarding `C/C=C1\[C@H]2C=C(C)C[C@]1(N)c1ccc(=O)[nH]c1C2`, the LD50 was 15 mg/kg.

For `O=c1c2cccnc2oc2c(Cl)cc(-c3nn[nH]n3)cc12`, the LD50 is 16000 mg/kg.

As to `CCc1c2c(nc3ccc(OC(=O)N4CCC(N5CCCCC5)CC4)cc13)-c1cc3c(c(=O)n1C2)COC(=O)[C@]3(O)CC`, the LD50 was 867 mg/kg.

On to `CC(=O)OCC(COc1ccccc1)OC(C)=O` (centres undefined), for which the LD50 is 5250 mg/kg.

Turning to `Cc1cccc(OCCC(C)C)c1N(C)C(=O)CCl`, the LD50 is 3300 mg/kg.

As for `Cc1ccc2c(-c3ccccc3)nc(=O)n(C(C)C)c2c1`, the LD50 was 759 mg/kg.

In the case of `CC(C)(C)NC[C@H](O)COc1ccccc1C1CCCC1`, the LD50 is 1260 mg/kg.

As to `CC(C)NCC(O)COC(C)c1ccccc1` (centres undefined), the LD50 was 540 mg/kg.

On to `CNc1nc(C)nc(OC)n1`, for which the LD50 is 394 mg/kg.

Regarding `CCN(CC)CC#N`, the LD50 is 160 mg/kg.

For `Clc1ccc2ccccc2c1`, the LD50 was 2080 mg/kg.

With `CCOP(=S)(OCC)OCCS(=O)CC` (centres undefined), the LD50 is 100 mg/kg.

In the case of `COC(=O)C(C)N(C(=O)c1ccccc1)c1ccc(F)c(Cl)c1` (centres undefined), the LD50 was 1200 mg/kg.

As for `O=S(=O)(c1ccc(Cl)cc1)c1cc(Cl)c(Cl)cc1Cl`, the LD50 is 566 mg/kg.

In the case of `CCC1=CSC(S)N1` (centres undefined), the LD50 is 35 mg/kg.

Turning to `CC(C)COC(=O)C(C)C`, the median lethal dose (LD50) was 12800 mg/kg.

For the compound `CC(C)C(=O)OCCc1ccccc1`, the LD50 is 5200 mg/kg.

Regarding `COC(=O)c1ccccc1C(=O)c1ccc(OCCN2CCCCC2)cc1`, the LD50 was 3600 mg/kg.

For `Cc1nccnc1N1CCCCC1`, the LD50 is 730 mg/kg.

`CCOC(=O)Nc1ccc2c(c1)N(C(=O)CCN(CC)CC)c1ccccc1CC2`: the median lethal dose (LD50) is 138 mg/kg.

Turning to `O=C(O)Cc1ccccc1`, the LD50 was 2250 mg/kg.

Consider `CC1CC(Cl)CCC1C(=O)OC(C)(C)C` (centres undefined), for which the LD50 is 4560 mg/kg.

`CCN(CCCC(=O)C1CCCCC1)C(C)Cc1ccc(OC)cc1` (centres undefined): the LD50 was 369 mg/kg.

`O=C1CCCCCCCCCCCN1`: the LD50 is 2330 mg/kg.

Consider `CSC(C)=NOC(=O)N(C)SSN(C)C(=O)ON=C(C)SC`, for which the LD50 was 190 mg/kg.

For `C1CCCNCC1`, the LD50 was 20.7 mg/kg.

Regarding `CCn1cc(C(=O)O)c(=O)c2cc(F)c(N3CCNC(C)C3)c(F)c21` (centres undefined), the LD50 was 3800 mg/kg and 1560 mg/kg.

As to `COc1cc(C(=O)OCCCCN2CCN(c3ccccc3)CC2)cc(OC)c1OC`, the LD50 was 2500 mg/kg.

On to `CC(=O)N[C@@H](Cc1c[nH]c2ccccc12)C(=O)O`, for which the LD50 was 15000 mg/kg.

With `N#Cc1nn(-c2c(Cl)cc(C(F)(F)F)cc2Cl)c(N)c1S(=O)(=O)C(F)(F)F`, the LD50 is 184 mg/kg.

As to `CC(Cl)CCC(C)Cl` (centres undefined), the LD50 was 4000 mg/kg.

Turning to `CCOP(=S)(OCC)SCS(=O)CC` (centres undefined), the LD50 is 2 mg/kg.

`CC(C)=CCCC(C)CCOC=O` (centres undefined): the LD50 was 8400 mg/kg.

As for `CCC(Br)(CC)C(=O)OCC(Br)(Br)Br`, the LD50 is 2500 mg/kg.

On to `CC(=O)NNc1ccc(N)cc1`, for which the LD50 was 10 mg/kg.

On to `COC(=O)C(=O)c1ccccc1`, for which the LD50 was 6800 mg/kg.

As for `O=C(O)c1cc(N=Nc2ccc(S(=O)(=O)O)cc2)ccc1O`, the LD50 was 14000 mg/kg.

As to `CC(=O)CCc1ccc(OC(C)=O)cc1`, the LD50 is 3040 mg/kg.

For the compound `CCOP(=S)(OCC)SCn1nc(-c2ccccc2)ccc1=O`, the LD50 was 555 mg/kg.

Take `C(=NCCCCCCN=Cc1ccco1)c1ccco1`: the LD50 is 490 mg/kg.

As to `CC1CN1P(=O)(N1CC1C)N1CC1C` (centres undefined), the LD50 was 136 mg/kg.

For the compound `OCCN(CCO)C1CCCCC1`, the LD50 was 2600 mg/kg.

Turning to `ClC1=C(Cl)C2(Cl)C3C4OC(C5OC54)C3C1(Cl)C2(Cl)Cl` (centres undefined), the LD50 is 142 mg/kg.

In the case of `CCN(CC)c1nc(N(C=NC2CC(C)(C)NC(C)(C)C2)C2CC(C)(C)NC(C)(C)C2)nc(N(C=NC2CC(C)(C)NC(C)(C)C2)C2CC(C)(C)NC(C)(C)C2)n1`, the LD50 is 826 mg/kg.

For the compound `CCSC(=O)NCCCN(C)C`, the LD50 is 1300 mg/kg.

For `CCCCC(=O)CC`, the LD50 is 2760 mg/kg.

Turning to `Clc1ccc(C(Cn2ccnc2)OCc2c(Cl)cccc2Cl)c(Cl)c1` (centres undefined), the LD50 was 5600 mg/kg.

With `COc1cc(C)c2[nH]c(=O)sc2c1`, the LD50 is 7580 mg/kg.

Consider `c1cc(OCC2CO2)cc(OCC2CO2)c1` (centres undefined), for which the LD50 is 2570 mg/kg.

Consider `O=C(CCc1ccccc1)OC1=C(OC(=O)CCc2ccccc2)C(=O)OC1=O`, for which the LD50 is 10000 mg/kg.

Turning to `C/C=C\c1ccc(OCc2ccccc2)c(OC)c1`, the LD50 is 4900 mg/kg.

`Cc1cc(C(=O)NNCc2ccccc2)no1`: the 50% lethal dose (LD50) was 280 mg/kg.

Turning to `Cn1nc(-c2ccccc2)c2conc2c1=O`, the LD50 was 1000 mg/kg.

Take `O=NN1CC=CCO1`: the LD50 was 900 mg/kg.
